Legend:
[1] = xn = mol fraction of the nth substance listed; settings: 101 kPa, Liquid, Vibrating tube method
[2] = refractive index (Na D-line) (dimensionless); xn = mol fraction of the nth substance listed; settings: 101 kPa, Liquid, Standard Abbe refractometry

C1CCC(NC2CCCCC2)CC1 [N-cyclohexylcyclohexanamine] + CC(C)(C)O
Settings	mass density, 303.15 K [kg/m3]	mass density, 308.15 K [kg/m3]	mass density, 313.15 K [kg/m3]	mass density, 318.15 K [kg/m3]	mass density, 323.15 K [kg/m3]	refractive index, 303.15 K	refractive index, 308.15 K	refractive index, 313.15 K	refractive index, 318.15 K	refractive index, 323.15 K
[1], x2 = 0	904.144	900.372	896.608	892.847	889.089	–	–	–	–	–
[1], x2 = 0.1	899.362	895.452	891.533	887.611	883.684	–	–	–	–	–
[1], x2 = 0.199	893.462	889.433	885.384	881.326	877.25	–	–	–	–	–
[1], x2 = 0.289	887.197	883.071	878.917	874.742	870.544	–	–	–	–	–
[1], x2 = 0.4	878.023	873.772	869.49	865.171	860.821	–	–	–	–	–
[1], x2 = 0.485	869.715	865.366	860.973	856.539	852.063	–	–	–	–	–
[1], x2 = 0.6	856.549	852.061	847.522	842.928	838.281	–	–	–	–	–
[1], x2 = 0.698	843.066	838.44	833.751	829.003	824.196	–	–	–	–	–
[1], x2 = 0.801	825.644	820.845	815.974	811.036	806.029	–	–	–	–	–
[1], x2 = 0.849	815.948	811.061	806.1	801.065	795.955	–	–	–	–	–
[1], x2 = 0.9	804.266	799.276	794.206	789.061	783.837	–	–	–	–	–
[2], x2 = 0	–	–	–	–	–	1.47978	1.47761	1.47562	1.47347	1.47134
[2], x2 = 0.1	–	–	–	–	–	1.47584	1.47362	1.47142	1.46916	1.467
[2], x2 = 0.199	–	–	–	–	–	1.47107	1.46875	1.46639	1.4641	1.46188
[2], x2 = 0.289	–	–	–	–	–	1.46609	1.46373	1.46133	1.45899	1.45674
[2], x2 = 0.4	–	–	–	–	–	1.45896	1.4565	1.45403	1.45163	1.44932
[2], x2 = 0.485	–	–	–	–	–	1.45238	1.44994	1.44742	1.44498	1.44272
[2], x2 = 0.6	–	–	–	–	–	1.4423	1.43973	1.43717	1.43461	1.43215
[2], x2 = 0.698	–	–	–	–	–	1.43185	1.42927	1.42663	1.42401	1.42155
[2], x2 = 0.801	–	–	–	–	–	1.41877	1.41609	1.41336	1.41073	1.4081
[2], x2 = 0.849	–	–	–	–	–	1.41128	1.40862	1.40587	1.40316	1.40048
[2], x2 = 0.9	–	–	–	–	–	1.40275	1.40004	1.39727	1.39449	1.39193

Source: the NIST ThermoML archive (doi:10.1016/j.tca.2011.08.002)
